Laboratory results published in patent US8557862B2, “Synergistic antimicrobial composition” (Dow Global Technologies LLC, priority 2009, dated 2013).

Tested on: oil field isolated anaerobic SRB consortium
Assay: Biocidal efficacy (MBC for complete bacteria kill) against sulfate reducing bacteria
Format: cell-based, Sulfate Reducing Bacteria (SRB)
Details: minimum tested biocide concentration for complete bacteria kill, alone or in the blend, 40° C., 24 hour, anaerobic salt solution, 10^6 to 10^7 CFU/mL
Protocol: Inside an anaerobic chamber (BACTRON III), a deaerated sterile salt solution (3.1183 g of NaCl, […] of NaHCO3, 47.70 mg of KCl, 72.00 mg of CaCl2, 54.49 mg of MgSO4, 172.28 mg of Na2SO4, 43.92 mg of Na2CO3 in 1 L water) was contaminated with an oil field isolated anaerobic SRB consortium at final bacterial concentrations of 10^6 to 10^7 CFU/mL. The aliquots of this contaminated water were then treated with glutaraldehyde and DXN, or the glutaraldehyde/DXN combination at different active concentration levels. After the mixtures were incubated at 40° C. for 24 hour, the biocidal efficacy was determined by minimum tested biocide concentration for complete bacteria kill in the aliquots (MBC). Table 1 summarizes the efficacy of each biocide and their blends, and the Synergy Index* of each combination.

CC(=O)OC1CC(C)OC(C)O1 (centres unmarked) [0:1, 2,6-dimethyl-1,3-dioxan-4-yl acetate]
MBC (active ppm) DXN (DXN concentration): 333.33 active ppm

O=CCCCC=O [1:0, glutaraldehyde]
MBC (active ppm) glut (glutaraldehyde concentration): 2.63 active ppm
